Data taken from the NIST ThermoML archive (doi:10.1016/j.jct.2015.08.014).
Numbers after ± are expanded uncertainties.

Experiment: xn = mol fraction of the nth substance listed
Conditions: 273.15 K, 100 kPa, Liquid, Alternating current cell with electrodes

CCCC[N+]1(C)CCCC1.N#CN=C=[N-] [1-butyl-1-methylpyrrolidinium dicyanamide] + O=C1CCCO1
electrical conductivity [S/m]
Conditions	Frequency=0.00446429 MHz	Frequency=0.005 MHz	Frequency=0.005454 MHz	Frequency=0.006 MHz	Frequency=0.00652174 MHz	Frequency=0.00694444 MHz	Frequency=0.0075 MHz	Frequency=0.008 MHz	Frequency=0.00857143 MHz	Frequency=0.00892857 MHz
x1 = 0.0463	–	0.977 ± 0.016	0.977 ± 0.016	0.977 ± 0.016	0.978 ± 0.016	0.978 ± 0.016	0.978 ± 0.016	0.978 ± 0.016	0.978 ± 0.016	0.978 ± 0.016
x1 = 0.0987	1.42 ± 0.017	1.42 ± 0.017	1.43 ± 0.017	1.43 ± 0.017	1.43 ± 0.017	1.43 ± 0.017	1.43 ± 0.017	1.43 ± 0.017	1.43 ± 0.017	1.43 ± 0.017
x1 = 0.1449	1.56 ± 0.016	1.56 ± 0.016	1.56 ± 0.016	1.56 ± 0.016	1.56 ± 0.016	1.56 ± 0.016	1.56 ± 0.016	1.56 ± 0.016	1.57 ± 0.016	1.57 ± 0.016
x1 = 0.1859	1.633 ± 0.016	1.633 ± 0.016	1.634 ± 0.016	1.634 ± 0.016	1.634 ± 0.016	1.634 ± 0.016	1.634 ± 0.016	1.635 ± 0.016	1.635 ± 0.016	1.635 ± 0.016
x1 = 0.2493	1.516 ± 0.015	1.517 ± 0.015	1.517 ± 0.015	1.517 ± 0.015	1.517 ± 0.015	1.517 ± 0.015	1.517 ± 0.015	1.517 ± 0.015	1.517 ± 0.015	1.517 ± 0.015
x1 = 0.3029	1.42 ± 0.015	1.42 ± 0.015	1.42 ± 0.015	1.42 ± 0.015	1.42 ± 0.015	1.42 ± 0.015	1.42 ± 0.015	1.42 ± 0.015	1.42 ± 0.015	1.42 ± 0.015
x1 = 0.3845	1.25 ± 0.013	1.25 ± 0.013	1.25 ± 0.013	1.25 ± 0.013	1.25 ± 0.013	1.25 ± 0.013	1.25 ± 0.013	1.25 ± 0.013	1.25 ± 0.013	1.25 ± 0.013
x1 = 0.4985	1.03 ± 0.011	1.03 ± 0.011	1.03 ± 0.011	1.03 ± 0.011	1.03 ± 0.011	1.03 ± 0.011	1.03 ± 0.011	1.03 ± 0.011	1.03 ± 0.011	1.03 ± 0.011
x1 = 0.6954	0.742 ± 0.008	0.742 ± 0.008	0.742 ± 0.008	0.742 ± 0.008	0.742 ± 0.008	0.742 ± 0.008	0.742 ± 0.008	0.742 ± 0.008	0.742 ± 0.008	0.742 ± 0.008
x1 = 0.9013	0.562 ± 0.006	0.562 ± 0.006	0.562 ± 0.006	0.562 ± 0.006	0.563 ± 0.006	0.563 ± 0.006	0.563 ± 0.006	0.563 ± 0.006	0.563 ± 0.006	–
x1 = 1	0.523 ± 0.005	0.523 ± 0.005	0.523 ± 0.005	0.523 ± 0.005	0.523 ± 0.005	0.523 ± 0.005	0.523 ± 0.005	0.523 ± 0.005	0.523 ± 0.005	–
